For one data set, the system named is HPV 16. The data set is described as follows: HPV 16 episome DNA levels in W12E cells by Q-PCR (Taqman). In kind it is cell-based, Human papilloma virus. The note with it: for effect on HPV viral DNA: comparison of 1037, distamycin A and cidofovir, FIG. 5; for IC50: effective (pseudo) IC50, 50% reduction in HPV DNA relative to vehicle (0.1% DMSO), read-out: HPV-16 IC50. In general terms: Quantitative PCR measures a nucleic acid by following its amplification.

The next data set is described as follows: MTT cell viability assay. The note with it: human, keratinocytes that maintain HPV 16 episomes. Here is the method:
(§1) Cells were cultured for 5 days in the presence of polyamide; % Cell Viability=(OD590 drug/OD590 control)×100; n=3.
(§2) Solubilisation of the cells by the addition of a detergent results in the liberation of the crystals which are solubilized. The number of surviving cells is directly proportional to the level of the formazan product created. The color can then be quantified using a simple colorimetric assay. The results can be read on a multiwell scanning spectrophotometer (ELISA reader).
(§3) Cell viability was also assessed routinely with the MTT assay.
For orientation: Tetrazolium assays rely on reduction of a dye to a coloured formazan, in cell work by metabolically active cells.

The subject of data set [1] is Keratinocytes that maintain HPV 16 episomes. Put plainly: MTT cell viability assay. The note with it: MTT assay; FIG. 2B, FIG. 5. Here is the method:
as §1, §2, §3

The subject of a further data set is HPV episomal DNA. Put plainly: Southern blot of HPV episomal DNA. It counts as cell-based, Human papilloma virus. The note with it: 1 μM and 10 μM; FIG. 4. How it is done:
Several alternative approaches have been used to confirm the effects of our compounds on viral DNA. […] DMSO is the vehicle control; HPV DNA indicates the linearized HPV DNA used to generate the hybridization probe via random primed labeling with DIG-dUTP (Roche); following hybridization, blot was incubated with anti-DIG-AP conjugate and HPV DNA detected using ECF substrate (Amersham) and Storm phosphorimager. […] Other NV compounds have similarly shown the expected decrease in viral DNA by Southern blotting.

Another data set relates to HPV31. Put plainly: HPV31 DNA levels in keratinocytes by real-time PCR. It counts as cell-based, Human papilloma virus. The note with it: effective (pseudo) IC50. How it is done: (§4) Human keratinocytes, including those maintaining HPV episomes, are cultured on mitomycin C-treated J2 3T3 cells in media containing three parts Dulbecco's modified Eagle medium (DMEM) and one part F12 media, our modification of published methods (Rheinwald and Green, 1975). Media (E Media) is supplemented with 0.4 μg/mL hydrocortisone, 10 ng/mL cholera toxin, 5 μg/mL insulin, 24 μg/mL adenine, 5 μg/mL transferrin, […] (T3), 10 ng/mL epidermal growth factor (EGF), 1% penicillin-streptomycin, and 5% fetal bovine serum (FBS). All cells are passaged at 70% confluency at a split ratio of 1:5.
(§5) Polyamides for HPV 18 are dissolved at 10 mM in 100% DMSO and diluted with H2O to 1 mM. Polyamides are added to cells in E media at final concentrations of 0.1-10 μM, with final DMSO concentrations of 0.1%. As controls, cells are incubated with normal E media and E media containing the “vehicle” 0.1% DMSO. The HPV DNA levels are then quantified according to previously published procedures (Garner-Hamrick and Fisher, Virology, 301, 334-41, 2002). After incubation, cells are harvested from the plates by either trypsinization or direct lysis with proteinase K digestion buffer (PK buffer: 100 mM NaCl, 10 mM Tris pH 8, 25 mM EDTA, 0.5% SDS, 0.1 mg/mL proteinase K). Trypsinized cells are counted on a hemocytometer and pelleted by centrifugation. Episomal HPV is isolated by the Hirt method (Hirt, 1967) and cell pellets are lysed in 0.6% SDS with 10 mM EDTA. NaCl is next added to a final concentration of 1 M. Following an overnight incubation at 4° C., precipitates containing the chromosomal DNA are spun down and episomal DNA precipitated by the addition of isopropanol. Cells lysed directly in PK buffer are transferred to microfuge tubes and incubated at 50° C. for 2 h. Lysates are then extracted with phenol/chloroform/isoamyl alcohol and spun through a phase lock gel (Eppendorf, Hamburg, Germany). Total DNA is then precipitated with 0.3 M NaOAc and 2.5 vol. ethanol and resuspended in Tris-EDTA (TE) buffer.
HPV31 primers-probe sets for PCR were also designed within the L1 gene:
(§6) All primers and probes are synthesized and HPLC purified by Applied Biosystems (Foster City, Calif.). The HPV probes are labeled with the 5′ reporter dye FAM (6-carboxy-fluorescein) and the 3′ quencher dye TAMRA (6-carboxytetramethyl-rhodamine). A standard curve is generated using a range of 10^8 to 10 copies/reaction of cloned, genomic HPV31 or HPV18 DNA using the following formula: (1.82×10^15)(μg/μL stock DNA)/(length in base pairs)(2)=copies/μL stock DNA. PCR reactions contain final concentrations of 1× Universal Master Mix (PE Applied Biosystems), 200 nM of each primer, and 250 nM probe (PE Applied Biosystems) in a reaction volume of 25 μL. Each Hirt-isolated DNA sample is analyzed in triplicate reactions for episomal HPV. Copies/reaction are determined from the standard curve, and copies/cell determined according to the following formula: (copies/reaction)×(DNA dilution)/(total # cells)=copies/cell.

Another data set concerns HPV18. Put plainly: HPV18 DNA levels in keratinocytes by real-time PCR. In kind it is cell-based, Human papilloma virus. The note with it: effective (pseudo) IC50. How it is done: as §4, §5
Viral DNA levels are next quantified according to variations on our previously published methods (Garner-Hamrick and Fisher, Virology, 301, 334-41, 2002). Quantitative PCR is performed using Real-Time PCR technology on an ABI PRISM 7700 Sequence Detector. All primers and probes were designed using Primer Express 1.0 (ABI). For HPV 18, PCR primer-probe sets were designed within the L1 gene:
as §6

Data set [2] is described as follows: Membrane integrity / modified propidium iodide procedure. It counts as cell-based. The note with it: rat, membrane integrity assay, read-out: TC50. Here is the method:
Toxicity testing has been carried out for 3 separate polyamides. Two different Rat hepatoma assays were used because they are industry standards for predicting in vivo toxicity. The assays for ATP and membrane integrity assays are described in detail below. Thus, rat hepatoma cells (H4IIE) were seeded into 96-well plates and cultured in medium containing 20% bovine serum. Following an equilibration period of 48 hr, the cells were treated with the test compounds at various concentrations for 24 hr at 37° C. in 5% CO2. Polyamide compounds were tested for toxicity in the two separate assays. A TC50 (concentration needed to kill half of the cells) was not achieved for any polyamides tested over the wide concentration range explored.
A modified propidium iodide (PI) procedure was used to assess cell proliferation/viability. This specific nucleic acid binding dye fluoresces when intercalated within the nucleic acids. The […] enhances PI fluorescence approximately 20 times while the excitation maxima are shifted 30-40 ηm. During method development experiments, it was determined that Triton-X-100 was the best solution to permeabilize the H4IIE cells thereby allowing the PI access to intracellular RNA and DNA. Fluorescence was measured using a Packard Fusion plate reader at 540 ηm excitation and 610 nm emission.

Read-outs that look alike come from different tables or passages of the source.

Consider `Nc1ccn(C[C@@H](CO)OCP(=O)(O)O)c(=O)n1` [Cidofovir, reference compound], for which the “loss of total HPV DNA content” value with HPV 16 (72 hours, only at very high concentrations, FIG. 1) is on record as “approximately 40%”. In the data set with HPV 16 (cell culture), the “selectivity index (SI: ratio of IC50 to TD50)” value worked out at 2.5. Also, in the data set on HPV 16, the “effect on HPV viral DNA” value is given as “only effective against HPV DNA at high concentrations”. Besides, the CC50 in “MTT cell viability assay” was determined as 750000 nM. Besides, in data set [1], the “effect on cell viability” value is given as “also affect cell viability”.
In general, IC50 refers to the concentration that inhibits the measured activity by half. On to `CN(CCCN)CCCNC(=O)CCNC(=O)c1cc(NC(=O)c2cc(NC(=O)c3cc(NC(=O)CCNC(=O)c4cc(NC(=O)c5cc(NC(=O)c6cc(NC(=O)[C@H](N)CCNC(=O)c7cc(NC(=O)c8cc(NC(=O)c9cc(NC(=O)CCNC(=O)c%10cc(NC(=O)c%11cc(NC(=O)c%12nccn%12C)cn%11C)cn%10C)cn9C)cn8C)cn7C)cn6C)cn5C)cn4C)cn3C)cn2C)cn1C` [Polyamide 1020, ImPPβPPPγNH2PPPβPPPβTa], for which, in the data set on HPV episomal DNA, the “episomal DNA content by Southern blot” value is given as “expected decrease in episomal DNA content”. For the same compound, the IC50 in the data set on HPV 16 is greater than 1000 nM; in the data set with HPV31, 100 to 1000 nM.
Turning to `CN(CCCN)CCCNC(=O)CCNC(=O)c1cc(NC(=O)c2cc(NC(=O)c3cc(NC(=O)CCNC(=O)c4cc(NC(=O)c5cc(NC(=O)c6cc(NC(=O)CCNC(=O)c7cc(NC(=O)c8cc(NC(=O)[C@H](N)CCNC(=O)c9cc(NC(=O)c%10cc(NC(=O)CCNC(=O)c%11cc(NC(=O)c%12nc(NC(=O)c%13cc(NC(=O)CCNC(=O)c%14cc(NC(=O)c%15cc(NC(=O)c%16nccn%16C)cn%15C)cn%14C)cn%13C)cn%12C)cn%11C)cn%10C)cn9C)cn8C)cn7C)cn6C)cn5C)cn4C)cn3C)cn2C)cn1C` [Polyamide 1037, ImPPβPIPβPPγNH2PPβPPPβPPPβTa], the “effect on HPV viral DNA” value in the data set on HPV 16 was “dramatic reduction of viral DNA levels”. For the same compound, the results for the half-maximal inhibitory concentration (IC50) in the data set with HPV 16, in the data set on HPV31 and in the data set on HPV18 were 100 to 1000 nM, no more than 100 nM and no more than 100 nM, respectively. Further, the “effect on absolute HPV 16 DNA levels” value in the data set on HPV 16 (higher doses, in some experiments, FIG. 3) was “nearly complete elimination of detectable viral DNA”. Besides, the “effect on cell viability” value in data set [1] is recorded as “little impact on cell viability”.
Consider `CC[C@@]1(O)C(=O)OCc2c1cc1n(c2=O)Cc2cc3ccccc3nc2-1` [camptothecin], for which the CC50 at 24 h in data set [2] (H4IIE rat hepatoma cells) is 5000 nM.
In the case of `C=C(C)[C@H]1Cc2c(ccc3c2O[C@@H]2COc4cc(OC)c(OC)cc4[C@@H]2C3=O)O1` [rotenone], the CC50 at 24 h in data set [2] was determined as 490 nM.
Take `Cn1cc(NC(=O)c2cc(NC(=O)c3cc(NC=O)cn3C)cn2C)cc1C(=O)NCCC(=N)N` [distamycin A, reference compound]: the “effect on HPV viral DNA” value in the data set with HPV 16 was “only effective against HPV DNA at high concentrations”. For the same compound, the “effect on cell viability” value in data set [1] is given as “also affect cell viability”.
Take `CN(CCCN)CCCNC(=O)CCNC(=O)c1cc(NC(=O)c2cc(NC(=O)c3cc(NC(=O)CCNC(=O)c4cc(NC(=O)c5cc(NC(=O)c6cc(NC(=O)CCNC(=O)c7cc(NC(=O)c8cc(NC(=O)c9cc(NC(=O)CCCNC(=O)c%10cc(NC(=O)c%11cc(NC(=O)CCNC(=O)c%12cc(NC(=O)c%13cc(NC(=O)c%14cc(NC(=O)CCNC(=O)c%15cc(NC(=O)c%16cc(NC(=O)c%17cc(NC(=O)c%18nccn%18C)cn%17C)cn%16C)cn%15C)cn%14C)cn%13C)cn%12C)cn%11C)cn%10C)cn9C)cn8C)cn7C)cn6C)cn5C)cn4C)cn3C)cn2C)cn1C` [Polyamide 1048, ImPPPβPPPβPPγPPPβPPPβPPPβTa]: the IC50 in the data set with HPV 16, in the data set with HPV31 and in the data set with HPV18 was 100 to 1000 nM throughout.
Take `CN(CCCN)CCCNC(=O)CCNC(=O)c1cc(NC(=O)c2cc(NC(=O)c3cc(NC(=O)c4cc(NC(=O)CCNC(=O)c5cc(NC(=O)c6cc(NC(=O)[C@H](N)CCNC(=O)c7cc(NC(=O)c8cc(NC(=O)c9cc(NC(=O)CCNC(=O)c%10cc(NC(=O)c%11cc(NC(=O)c%12nccn%12C)cn%11C)cn%10C)cn9C)cn8C)cn7C)cn6C)cn5C)cn4C)cn3C)cn2C)cn1C` [Polyamide 1030, ImPPβPPPγNH2PPβPPPPβTa]: the IC50 in the data set with HPV 16, in the data set on HPV31 and in the data set with HPV18 was 100 to 1000 nM throughout.
For the compound `CN(CCCN)CCCNC(=O)CCNC(=O)c1cc(NC(=O)CCNC(=O)c2cc(NC(=O)c3cc(NC(=O)c4cc(NC(=O)CCNC(=O)c5cc(NC(=O)c6cc(NC(=O)CCCNC(=O)CCNC(=O)c7cc(NC(=O)c8cc(NC(=O)CCNC(=O)c9cc(NC(=O)c%10cc(NC(=O)c%11cc(NC(=O)c%12nccn%12C)cn%11C)cn%10C)cn9C)cn8C)cn7C)cn6C)cn5C)cn4C)cn3C)cn2C)cn1C` [Polyamide 1027, ImPPPβPPβγPPβPPPβPβTa], the IC50 in the data set with HPV 16, in the data set on HPV31 and in the data set on HPV18 was 100 to 1000 nM in each case.
In the case of `CN(CCCN)CCCNC(=O)CCNC(=O)c1cc(NC(=O)c2cc(NC(=O)c3cc(NC(=O)CCNC(=O)c4cc(NC(=O)c5cc(NC(=O)c6cc(NC(=O)CCNC(=O)c7cc(NC(=O)c8cc(NC(=O)[C@@H](CCN)NC(=O)c9cc(NC(=O)c%10cc(NC(=O)CCNC(=O)c%11nc(NC(=O)c%12cc(NC(=O)c%13cc(NC(=O)CCNC(=O)c%14cc(NC(=O)c%15cc(NC(=O)c%16nccn%16C)cn%15C)cn%14C)cn%13C)cn%12C)cn%11C)cn%10C)cn9C)cn8C)cn7C)cn6C)cn5C)cn4C)cn3C)cn2C)cn1C` [Polyamide 1049, ImPPβPPIβPPγNH2PPβPPPβPPPβTa], the IC50 with HPV 16 is 100 to 1000 nM; in the data set with HPV31 it was no less than 1000 nM; with HPV18 it was 100 to 1000 nM.

Values taken from US9290551B2, “Compounds for treating papilloma virus infection” (NanoVir, LLC, priority 2012, dated 2016).
